ChEMBL document CHEMBL1201862, “PubChem BioAssay data set” (2004)
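A five-concentration, 48-hour dose response in 96-well plates underlies each endpoint, interpolated linearly between surrounding concentrations. The concentration for 50% growth inhibition is given as GI50.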 Calls of active or inactive are those of the source. Rule as the data show it: active = GI50 up to about 1.1 µM and inactive = higher. Peptide text beside a SMILES is read from it. * marks the point of attachment. OSu = O=C1CCC(=O)N1O*

Experiments:
Assay in all cases: growth of human tumour cells (NCI), 48 h
NCI/ADR-RES = system: NCI/ADR-RES
UACC-62 = system: UACC-62
UO-31 = system: UO-31
SK-MEL-28 = system: SK-MEL-28
OVCAR-4 = system: OVCAR-4
TK-10 = system: TK-10
UACC-257 = system: UACC-257
COLO 205 = system: COLO 205
OVCAR-8 = system: OVCAR-8
KM12 = system: KM12
Hs-578T = system: Hs-578T
U-251 = system: U-251
SW-620 = system: SW-620
CAKI-1 = system: CAKI-1
K562 = system: K562
SK-OV-3 = system: SK-OV-3
M14 = system: M14
CCRF-CEM = system: CCRF-CEM
SK-MEL-5 = system: SK-MEL-5
Malme-3M = system: Malme-3M

| SMILES | GI50 (NCI/ADR-RES) | GI50 (UACC-62) | GI50 (UO-31) | GI50 (SK-MEL-28) | GI50 (OVCAR-4) | GI50 (TK-10) | GI50 (UACC-257) | GI50 (COLO 205) | GI50 (OVCAR-8) | GI50 (KM12) | GI50 (Hs-578T) | GI50 (U-251) | GI50 (SW-620) | GI50 (CAKI-1) | GI50 (K562) | GI50 (SK-OV-3) | GI50 (M14) | GI50 (CCRF-CEM) | GI50 (SK-MEL-5) | GI50 (Malme-3M) |
| --- | --- | --- | --- | --- | --- | --- | --- | --- | --- | --- | --- | --- | --- | --- | --- | --- | --- | --- | --- | --- |
| O=C(N/N=C\c1c(O)ccc2ccccc12)c1ccncc1 | 0.562 µM (active) | 0.467 µM (active) | 0.356 µM (active) | 0.649 µM (active) | 0.237 µM (active) | > 7.23 µM (inactive) | 1.22 µM (inactive) | 0.82 µM (active) | 0.574 µM (active) | 2.7 µM (inactive) | > 15.3 µM (inactive) | 0.29 µM (active) | 0.769 µM (active) | 1 µM (active) | 0.0553 µM (active) | 0.693 µM (active) | 0.474 µM (active) | 0.0887 µM (active) | 0.341 µM (active) |  |
| COc1cccc([C@@H]2C/C(=N\NC(=O)C(=O)N[C@@H](C)c3ccccc3)c3ccccc3N2)c1 | 65.2 µM (inactive) | 9.31 µM (inactive) | > 100 µM (inactive) | > 100 µM (inactive) | 34.8 µM (inactive) | > 100 µM (inactive) | 82 µM (inactive) | > 100 µM (inactive) |  | 10.1 µM (inactive) | 23.7 µM (inactive) | > 100 µM (inactive) | 89.5 µM (inactive) | 25.8 µM (inactive) | 32.1 µM (inactive) | > 100 µM (inactive) | > 100 µM (inactive) | > 100 µM (inactive) | 14.5 µM (inactive) |  |
| CCCCNC(=S)Nn1c(-c2ccccc2)nc2ccccc2c1=O |  | > 100 µM (inactive) | 76.9 µM (inactive) | 9.68 µM (inactive) | > 100 µM (inactive) | > 100 µM (inactive) | > 100 µM (inactive) | > 100 µM (inactive) | > 100 µM (inactive) | > 100 µM (inactive) |  | > 100 µM (inactive) | > 100 µM (inactive) | > 100 µM (inactive) | 67.1 µM (inactive) | > 100 µM (inactive) | > 100 µM (inactive) | 38.3 µM (inactive) | > 100 µM (inactive) | > 100 µM (inactive) |
| CN1C2=C(CC3=C1CC(C)(C)CC3=O)C(=O)CC(C)(C)C2 | > 100 µM (inactive) | > 100 µM (inactive) | > 100 µM (inactive) | > 100 µM (inactive) | > 100 µM (inactive) | > 100 µM (inactive) |  |  | > 100 µM (inactive) | > 100 µM (inactive) | > 100 µM (inactive) | > 100 µM (inactive) | > 100 µM (inactive) | > 100 µM (inactive) | > 100 µM (inactive) | > 100 µM (inactive) | > 100 µM (inactive) | > 100 µM (inactive) | > 100 µM (inactive) |  |
| Cc1cccc(-c2nnc3s/c(=C\c4ccc(N(C)C)cc4)c(=O)n23)c1 |  | > 100 µM (inactive) | > 100 µM (inactive) | > 100 µM (inactive) | > 100 µM (inactive) | > 100 µM (inactive) | > 100 µM (inactive) | > 100 µM (inactive) | > 100 µM (inactive) | > 100 µM (inactive) |  | > 100 µM (inactive) | > 100 µM (inactive) | > 100 µM (inactive) | > 100 µM (inactive) | > 100 µM (inactive) | > 100 µM (inactive) | > 100 µM (inactive) | > 100 µM (inactive) | > 100 µM (inactive) |
| N[C@H](C(=O)O)[C@@H](Cl)CC(=O)O |  | > 100 µM (inactive) | > 100 µM (inactive) | > 100 µM (inactive) | > 100 µM (inactive) | > 100 µM (inactive) | > 100 µM (inactive) | > 100 µM (inactive) | > 100 µM (inactive) | > 100 µM (inactive) |  | > 100 µM (inactive) | > 100 µM (inactive) | > 100 µM (inactive) | > 100 µM (inactive) | > 100 µM (inactive) | > 100 µM (inactive) | > 100 µM (inactive) | > 100 µM (inactive) | > 100 µM (inactive) |
| NCCCCC(NC(=O)C(N)Cc1ccc(O)cc1)C(=O)NC(CCCCN)C(=O)NC(CCCCN)C(=O)ON1C(=O)CCC1=O (centres undefined) (H-YKKK-OSu; configuration not given here) |  | > 100 µM (inactive) | > 100 µM (inactive) | > 100 µM (inactive) |  | > 100 µM (inactive) | > 100 µM (inactive) | > 100 µM (inactive) | > 100 µM (inactive) | > 100 µM (inactive) | > 100 µM (inactive) | > 100 µM (inactive) | > 100 µM (inactive) |  | > 100 µM (inactive) |  | > 100 µM (inactive) |  | > 100 µM (inactive) | > 100 µM (inactive) |
| CN(C)c1nc(N(C)C)n2nc(-c3ccccc3[N+](=O)[O-])nc2n1 |  | > 100 µM (inactive) | > 100 µM (inactive) | > 100 µM (inactive) | > 100 µM (inactive) | > 100 µM (inactive) | > 100 µM (inactive) | 70.1 µM (inactive) | > 100 µM (inactive) | > 100 µM (inactive) |  | > 100 µM (inactive) | 10.1 µM (inactive) | > 100 µM (inactive) | > 100 µM (inactive) | > 100 µM (inactive) | > 100 µM (inactive) | > 100 µM (inactive) | > 100 µM (inactive) | > 100 µM (inactive) |
| NC(=O)C(=O)C1CCC2=C(Sc3ccccc3N2)C1=O (centres undefined) |  | > 100 µM (inactive) | > 100 µM (inactive) | > 100 µM (inactive) | > 100 µM (inactive) | > 100 µM (inactive) | > 100 µM (inactive) | > 100 µM (inactive) | > 100 µM (inactive) | > 100 µM (inactive) |  | > 100 µM (inactive) | > 100 µM (inactive) | > 100 µM (inactive) | > 100 µM (inactive) | > 100 µM (inactive) | > 100 µM (inactive) | > 10 µM (inactive) | > 100 µM (inactive) | > 100 µM (inactive) |
| Oc1cc(CN2CCOCCOCCOCCOCC2)c(O)cc1CN1CCOCCOCCOCCOCC1 |  | 29.2 µM (inactive) | > 71.3 µM (inactive) | 24 µM (inactive) | 18.4 µM (inactive) | > 56.2 µM (inactive) | > 100 µM (inactive) | 21.2 µM (inactive) | 40.5 µM (inactive) | > 100 µM (inactive) |  | > 41.5 µM (inactive) | 24.4 µM (inactive) | 18.1 µM (inactive) | 24.4 µM (inactive) | > 100 µM (inactive) | 18.3 µM (inactive) | 18.6 µM (inactive) | > 61.2 µM (inactive) | > 10 µM (inactive) |
| C=C1C(=O)O[C@H]2C(=O)[C@H](C)CCC/C(C)=C/CC[C@@]3(C)O[C@@H]3C[C@@H]12 | 14 µM (inactive) | 5.06 µM (inactive) | 1.62 µM (inactive) |  |  | 0.135 µM (active) | 2.99 µM (inactive) | 1.58 µM (inactive) | 1.69 µM (inactive) | 4.3 µM (inactive) | 6.34 µM (inactive) | 2.67 µM (inactive) | 1.56 µM (inactive) | 1.67 µM (inactive) | 2.07 µM (inactive) | 16.4 µM (inactive) | 1.67 µM (inactive) | 1.18 µM (inactive) | 7.59 µM (inactive) |  |
| CCC(=O)N(O)C(C)(C)C |  | > 100 µM (inactive) | > 100 µM (inactive) | > 100 µM (inactive) | > 100 µM (inactive) | > 100 µM (inactive) | > 100 µM (inactive) | > 100 µM (inactive) | > 100 µM (inactive) | > 100 µM (inactive) |  | > 100 µM (inactive) | > 100 µM (inactive) | > 100 µM (inactive) | > 100 µM (inactive) | > 100 µM (inactive) | > 100 µM (inactive) | > 100 µM (inactive) | > 100 µM (inactive) | > 100 µM (inactive) |
| Clc1ccc2c(Cl)ncnc2c1 |  | > 100 µM (inactive) | > 100 µM (inactive) | > 100 µM (inactive) | > 100 µM (inactive) | > 100 µM (inactive) | > 100 µM (inactive) | > 100 µM (inactive) | > 100 µM (inactive) | > 100 µM (inactive) |  | > 100 µM (inactive) | > 100 µM (inactive) | > 100 µM (inactive) | > 100 µM (inactive) | > 100 µM (inactive) | > 100 µM (inactive) | > 100 µM (inactive) | > 100 µM (inactive) | > 100 µM (inactive) |
| CC(=O)c1ccc2c(c1)oc(=O)n2CCN(C)C | > 100 µM (inactive) | > 100 µM (inactive) |  | > 100 µM (inactive) |  | > 100 µM (inactive) | > 100 µM (inactive) | > 100 µM (inactive) | > 100 µM (inactive) | > 100 µM (inactive) | 51.6 µM (inactive) | > 100 µM (inactive) | > 100 µM (inactive) | > 100 µM (inactive) |  | > 100 µM (inactive) | > 100 µM (inactive) | > 100 µM (inactive) |  | 2.02 µM (inactive) |
| COC(=O)C1=C(C(=O)OC)C(C(=O)OC)C(C(=O)OC)=C1C(=O)OC |  | > 100 µM (inactive) | > 100 µM (inactive) | > 100 µM (inactive) | > 100 µM (inactive) | > 100 µM (inactive) | > 100 µM (inactive) | > 100 µM (inactive) | > 100 µM (inactive) | > 100 µM (inactive) |  | > 100 µM (inactive) | > 100 µM (inactive) | > 100 µM (inactive) | > 100 µM (inactive) | > 100 µM (inactive) | > 100 µM (inactive) | > 100 µM (inactive) | > 100 µM (inactive) | > 100 µM (inactive) |
